Laboratory results published in patent US8569267B2, “Tetracyclic tetrahydrofuran derivatives containing cyclic amine side chain” (Janssen Pharmaceutica, NV, priority 2005, dated 2013).
Like-named read-outs stand apart in the source and are kept apart here.

Assays:
[1] = target: T1, human cloned 5-HT2C receptor, expressed in CHO cells (Homo sapiens, UniProt P28335); assay: In vitro binding affinity for 5-HT2C receptor ([3H]mesulergine radioligand binding)
T1 construct: expressed in transfected cells; host or cells: CHO cells
T1 sequence (P28335 33-458): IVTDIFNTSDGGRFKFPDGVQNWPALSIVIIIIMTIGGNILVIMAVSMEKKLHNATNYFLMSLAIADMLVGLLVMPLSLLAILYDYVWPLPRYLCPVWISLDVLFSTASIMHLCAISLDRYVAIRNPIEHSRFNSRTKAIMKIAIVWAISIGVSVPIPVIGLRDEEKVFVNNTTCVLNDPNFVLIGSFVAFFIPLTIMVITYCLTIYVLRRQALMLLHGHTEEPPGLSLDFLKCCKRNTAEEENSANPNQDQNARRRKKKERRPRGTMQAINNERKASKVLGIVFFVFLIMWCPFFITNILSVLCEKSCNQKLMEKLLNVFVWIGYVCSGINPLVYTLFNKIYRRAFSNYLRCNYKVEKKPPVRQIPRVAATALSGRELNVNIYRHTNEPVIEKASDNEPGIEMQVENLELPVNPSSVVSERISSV
Description: In Vitro Binding Affinity for 5-HT2A and 5-HT2C Receptors
The interaction of the compounds of Formula (I) with 5-HT2A and 5-HT2C receptors was assessed in in vitro radioligand binding experiments. […] During the incubation, the radioligands bind to the receptor. When equilibrium of binding is reached, the receptor bound radioactivity is separated from the non-bound radioactivity, and the receptor bound activity is counted. The interaction of the test compounds with the receptors is assessed in competition binding experiments. Various concentrations of the test compound are added to the incubation mixture containing the tissue preparation and the radioligand. Binding of the radioligand will be inhibited by the test compound in proportion to its binding affinity and its concentration.

[2] = target: T2, human Dopamine D2L receptor (Homo sapiens, UniProt P14416); assay: In vitro binding affinity for human D2L receptor ([3H]Spiperone binding)
T2 construct: expressed in transfected cells; host or cells: CHO cells
Description: In Vitro Binding Affinity for Human D2L Receptor
Frozen membranes of human Dopamine D2L receptor-transfected CHO cells were thawed, briefly homogenised using an Ultra-Turrax T25 homogeniser and diluted in Tris-HCl assay buffer containing NaCl, CaCl2, MgCl2, KCl (50, 120, 2, 1, and 5 mM respectively, adjusted to pH 7.7 with HCl) to an appropriate protein concentration optimised for specific and non-specific binding. Radioligand [^3H]Spiperone (NEN, specific activity ˜70 Ci/mmol) was diluted in assay buffer at a concentration of 2 nmol/L. Prepared radioligand (50 μl), along with 50 μl of either the 10% DMSO control, Butaclamol (10^−6 mol/l final concentration), or compound of interest, was then incubated (30 min, 37° C.) with 400 μl of the prepared membrane solution. Membrane-bound activity was filtered through a Packard Filtermate harvester onto GF/B Unifilterplates and washed with ice-cold Tris-HCl buffer (50 mM; pH 7.7; 6×0.5 ml). Filters were allowed to dry before adding scintillation fluid and counting in a Topcount scintillation counter. Percentage specific bound and competition binding curves were calculated using S-Plus software (Insightful).

[3] = target: T3, NET (norepinephrine transporter) (Rattus norvegicus, UniProt Q63380); assay: In vitro determination of NET reuptake inhibition ([3H]Nixosetine binding, rat brain cortex)
T3 construct: Cortex from rat brain was collected and homogenised; from tissue; host or cells: rat brain cortex
Description: In Vitro Determination of NET Reuptake Inhibition
Cortex from rat brain was collected and homogenised using an Ultra-Turrax T25 and a Dual homogeniser in ice-cold homogenising buffer containing Tris, NaCl and KCl (50 mM, 120 mM and 5 mM, respectively, pH 7.4) prior to dilution to an appropriate protein concentration optimised for specific and non-specific binding. […] Membrane-bound activity was detected by filtration through a Packard Filtermate harvester onto GF/B Unifilterplates, washed with ice-cold Tris-HCl buffer, containing NaCl and KCl (50 mM, 120 mM and 4 mM; pH 7.4; 6×0.5 ml). Filters were allowed to dry for 24 h before adding scintillation fluid. Scintillation fluid was allowed to saturate filters for 24 h before counting in a Topcount scintillation counter. Percentage specific bound and competition binding curves were calculated using S-Plus software (Insightful).

[4] = human cloned 5-HT2C receptor, read-out: 5-HT2C pIC50 (converted)
[5] = human D2L receptor-transfected CHO cell membranes, read-out: D2L pIC50 (converted)
[6] = rat brain cortex, read-out: NET pIC50 (converted)
[7] = human D2L receptor-transfected CHO cell membranes

T2 sequence (P14416 whole entry): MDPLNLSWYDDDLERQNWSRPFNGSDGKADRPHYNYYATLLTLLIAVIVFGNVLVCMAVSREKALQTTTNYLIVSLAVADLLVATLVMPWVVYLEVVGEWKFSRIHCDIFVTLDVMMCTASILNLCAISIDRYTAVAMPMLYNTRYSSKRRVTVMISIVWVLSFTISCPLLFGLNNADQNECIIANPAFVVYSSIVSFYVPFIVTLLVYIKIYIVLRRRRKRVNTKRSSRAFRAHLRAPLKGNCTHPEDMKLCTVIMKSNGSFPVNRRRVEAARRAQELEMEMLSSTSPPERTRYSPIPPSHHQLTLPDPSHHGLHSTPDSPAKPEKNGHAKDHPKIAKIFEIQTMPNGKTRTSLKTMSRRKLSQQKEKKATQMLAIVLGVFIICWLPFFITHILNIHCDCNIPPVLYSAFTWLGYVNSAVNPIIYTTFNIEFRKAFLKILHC
T3 sequence (Q63380 1-617): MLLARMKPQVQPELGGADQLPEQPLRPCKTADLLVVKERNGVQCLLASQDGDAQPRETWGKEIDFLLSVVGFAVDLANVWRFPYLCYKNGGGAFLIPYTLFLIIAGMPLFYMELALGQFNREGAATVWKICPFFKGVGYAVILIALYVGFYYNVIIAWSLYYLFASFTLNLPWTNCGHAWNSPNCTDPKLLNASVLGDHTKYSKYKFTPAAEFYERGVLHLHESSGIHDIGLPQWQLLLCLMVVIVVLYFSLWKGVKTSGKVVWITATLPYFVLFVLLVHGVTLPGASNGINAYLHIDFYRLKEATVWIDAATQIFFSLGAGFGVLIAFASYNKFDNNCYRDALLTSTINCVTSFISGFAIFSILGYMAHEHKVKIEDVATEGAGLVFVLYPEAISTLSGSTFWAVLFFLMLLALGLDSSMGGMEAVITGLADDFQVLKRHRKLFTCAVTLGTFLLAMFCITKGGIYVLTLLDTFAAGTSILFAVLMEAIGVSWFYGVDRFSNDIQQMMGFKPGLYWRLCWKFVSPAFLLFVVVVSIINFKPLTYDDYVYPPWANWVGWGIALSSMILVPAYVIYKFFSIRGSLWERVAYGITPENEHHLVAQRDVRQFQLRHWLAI

SMILES | IC50 [1, 4] | IC50 [2, 5] | IC50 [3, 6] | other results
OC1CCCN(CC2CC3c4ccccc4Cc4ccc(F)cc4C3O2)C1 (racemic) [Compound 141] | 1.15 nM | 16.6 nM | 4790 nM | 
O=C(NC1CCN(CC2CC3c4ccccc4Cc4ccc(F)cc4C3O2)CC1)c1ccc(Cl)c(Cl)c1 (stereo not drawn) [Compound 229] | 24 nM | 14.8 nM | > 10000 nM | 
O=C(O)C1CCN(C[C@H]2C[C@@H]3c4ccccc4Cc4ccc(F)cc4[C@@H]3O2)CC1 [Compound 157] | 7.24 nM | 132 nM | > 10000 nM | 
O=C(NCc1ccccn1)C1CCN(CC2CC3c4ccccc4Cc4ccc(F)cc4C3O2)CC1 (stereo not drawn) [Compound 197] | 1 nM | 4.57 nM | 8510 nM | 
CCCOC(=O)NC1CCN(CC2CC3c4ccccc4Cc4ccc(F)cc4C3O2)CC1 (stereo not drawn) [Compound 212] | 7.41 nM | 6.03 nM | 7080 nM | 
CC1c2ccccc2C2CC(CN3CCC(O)C3)OC2c2cc(F)ccc21 (mixture of isomers) [Compound 46] | 1.1 nM | 17.4 nM | 2400 nM | 
O=C(NC1CCN(CC2CC3c4ccccc4Cc4ccc(F)cc4C3O2)CC1)c1cccc(Cl)c1Cl (stereo not drawn) [Compound 228] | 20.9 nM | 9.12 nM | 7940 nM | 
N#Cc1ccc(NC(=O)NC2CCN(CC3CC4c5ccccc5Cc5ccc(F)cc5C4O3)CC2)cc1 (stereo not drawn) [Compound 248] | 6.17 nM | 2.09 nM | 3800 nM | 
Cc1onc(-c2ccccc2Cl)c1C(=O)NC1CCN(CC2CC3c4ccccc4Cc4ccc(F)cc4C3O2)CC1 (stereo not drawn) [Compound 222] | 19.5 nM | 15.1 nM | > 10000 nM | 
CCCCOC(=O)NC1CCN(CC2CC3c4ccccc4Cc4ccc(F)cc4C3O2)CC1 (stereo not drawn) [Compound 213] | 15.5 nM | 8.71 nM | 4370 nM | 
CC(C)(C)CC(C)(C)NC(=O)NC1CCN(CC2CC3c4ccccc4Cc4ccc(F)cc4C3O2)CC1 (stereo not drawn) [Compound 245] | 22.9 nM | 23.4 nM | 3980 nM | 
O=C(NC1CCN(CC2CC3c4ccccc4Cc4ccc(F)cc4C3O2)CC1)NC1CC1c1ccccc1 (mixture of isomers) [Compound 246] | 5.75 nM | 11.7 nM | 1350 nM | 
OC1CCCN(CC2CC3c4ccccc4Cc4ccc(F)cc4C3O2)C1 (single isomer, unassigned) [Compound 142] | 3.16 nM | 14.5 nM | 2400 nM | 
O=C(O)C(=O)O.O[C@H]1CCN(C[C@H]2C[C@@H]3c4ccccc4Cc4ccc(F)cc4[C@@H]3O2)C1 [Compound 3] |  |  |  | 5-HT2C pIC50 ([1]; human cloned 5-HT2C receptor): 9.57; D2L pIC50 [2, 7]: 8.01; NET pIC50 ([3]; rat brain cortex): 5.45
O=C(NC1CCN(CC2CC3c4ccccc4Cc4ccc(F)cc4C3O2)CC1)c1c(F)c(F)c(F)c(F)c1F (stereo not drawn) [Compound 234] | 21.9 nM | 8.71 nM | 7240 nM | 
CC(=O)OC1CCN(C[C@H]2C[C@@H]3c4ccccc4Cc4ccc(F)cc4[C@@H]3O2)CC1 [Compound 166] | < 1 nM | 2.09 nM | 7240 nM | 
Cc1cccc(C(=O)NC2CCN(CC3CC4c5ccccc5Cc5ccc(F)cc5C4O3)CC2)c1 (stereo not drawn) [Compound 225] | 11.2 nM | 6.03 nM | 5250 nM | 
N#CC1(c2ccccc2)CCN(C(=O)C2CCN(CC3CC4c5ccccc5Cc5ccc(F)cc5C4O3)CC2)CC1 (stereo not drawn) [Compound 208] | 7.94 nM | 22.9 nM | > 10000 nM | 
O=C(NC1CCN(CC2CC3c4ccccc4Cc4ccc(F)cc4C3O2)CC1)c1cc2ccccc2s1 (stereo not drawn) [Compound 223] | 23.4 nM | 17.8 nM | 8510 nM | 

SMILES | IC50 [1, 4] | IC50 [2, 5] | IC50 [3, 6] | other results
Fc1ccc2c(c1)C1OC(CN3CCOC(CCOc4ccccc4)C3)CC1c1ccccc1C2 (mixture of isomers) [Compound 131] | 30.9 nM | 19.5 nM | 2400 nM | 
OC1CCCN(CC2CC3c4ccccc4Cc4ccc(F)cc4C3O2)C1 (single isomer, unassigned) [Compound 143] | 1.82 nM | 12.6 nM | > 10000 nM | 
C#CCOC(=O)NC1CCN(CC2CC3c4ccccc4Cc4ccc(F)cc4C3O2)CC1 (stereo not drawn) [Compound 217] | 4.07 nM | 4.9 nM | 8910 nM | 
N#Cc1ccc2c(c1)C1CC(CN3CCC(O)C3)OC1c1cc(F)ccc1S2.O=C(O)C(=O)O (mixture of isomers) [Compound 259] |  |  |  | 5-HT2C pIC50 ([1]; human cloned 5-HT2C receptor): 7.64; D2L pIC50 [2, 7]: 6.59; NET pIC50 ([3]; rat brain cortex): 5.38
O=C(NCc1cccs1)C1CCN(CC2CC3c4ccccc4Cc4ccc(F)cc4C3O2)CC1 (stereo not drawn) [Compound 195] | 1.62 nM | 5.5 nM | 7760 nM | 
O=C(NCc1cccc(C(F)(F)F)c1)C1CCN(CC2CC3c4ccccc4Cc4ccc(F)cc4C3O2)CC1 (stereo not drawn) [Compound 182] | 8.32 nM | 31.6 nM | 6920 nM | 
O=C(NC1CCN(CC2CC3c4ccccc4Cc4ccc(F)cc4C3O2)CC1)c1ccc(-c2ccccc2)cc1 (stereo not drawn) [Compound 237] | 38 nM | 58.9 nM | 7940 nM | 
CCCNC(=O)NC1CCN(C[C@H]2C[C@@H]3c4ccccc4Cc4ccc(F)cc4[C@@H]3O2)CC1 [Compound 244] | 4.27 nM | 4.57 nM | 8910 nM | 
CS(=O)(=O)CCCCNC(=S)NC1CCN(CC2CC3c4ccccc4Cc4ccc(F)cc4C3O2)CC1 (stereo not drawn) [Compound 251] | 8.51 nM | 10.7 nM | 3630 nM | 
O=C(NC1CCN(CC2CC3c4ccccc4Cc4ccc(F)cc4C3O2)CC1)c1ccccc1Br (stereo not drawn) [Compound 226] | 6.61 nM | 5.37 nM | 10500 nM | 
CCOC(=O)C1CCCN(C[C@H]2C[C@@H]3c4ccccc4Cc4ccc(F)cc4[C@@H]3O2)C1 (stereo partly drawn) [Compound 160] | 2.88 nM | 14.5 nM | > 10000 nM | 
O=C(Nc1ccccc1)NC1CCN(CC2CC3c4ccccc4Cc4ccc(F)cc4C3O2)CC1 (stereo not drawn) [Compound 247] | 2.69 nM | 3.31 nM | 3550 nM | 
COC(=O)NC1CCN(CC2CC3c4ccccc4Cc4ccc(F)cc4C3O2)CC1 (stereo not drawn) [Compound 210] | 4.17 nM | 7.94 nM | 7410 nM | 
O=C(Cc1cccs1)NC1CCN(CC2CC3c4ccccc4Cc4ccc(F)cc4C3O2)CC1 (stereo not drawn) [Compound 240] | 5.75 nM | 4.57 nM | > 10000 nM | 
O=C(NC1CCN(C[C@H]2C[C@@H]3c4ccccc4Cc4ccc(F)cc4[C@@H]3O2)CC1)OCc1ccccc1Cl [Compound 218] | 5.75 nM | 10.2 nM | 5620 nM | 
COc1cc(NC(=S)NC2CCN(CC3CC4c5ccccc5Cc5ccc(F)cc5C4O3)CC2)cc(OC)c1OC (stereo not drawn) [Compound 255] | 20.4 nM | 20.4 nM | 5620 nM | 
COc1ccc(OC(=O)NC2CCN(CC3CC4c5ccccc5Cc5ccc(F)cc5C4O3)CC2)cc1 (stereo not drawn) [Compound 219] |  |  |  | IC50 ([1]; 5-HT2C pIC50, human cloned 5-HT2C receptor): 3.98 nM; IC50 ([2]; D2L pIC50, human D2L receptor-transfected CHO cell membranes): 3.39 nM; IC50 ([3]; NET pIC50, rat brain cortex): > 10000 nM
CC(C)(C)COC(=O)NC1CCN(CC2CC3c4ccccc4Cc4ccc(F)cc4C3O2)CC1 (stereo not drawn) [Compound 215] |  | 15.8 nM | 7410 nM | 
O=C(O)C(=O)O.OC1CCN(CC2CC3c4ccccc4Oc4ccc(F)cc4C3O2)CC1 (stereo not drawn) [Compound 283] |  |  |  | D2L pIC50 [2, 7]: 6.70
